This is an account of results in ChEMBL document CHEMBL4376892, “Identification of Parthenolide Dimers as Activators of Pyruvate Kinase M2 in Xenografts of Glioblastoma Multiforme in Vivo” (J Med Chem, 2020).

For data set [1], the system named is U-118-MG. Description: Antitumor activity against human U118MG cells xenografted in Bar b/c nude mouse assessed as reduction in tumor growth at 50 mg/kg, ip adminstered twice weekly for 3 weeks and measured every 3 days for 20 days by caliper method. The class given is functional, organism-based.
Data set [2] has as its system U-118-MG. The experiment in a line: Antitumor activity against human U118MG cells xenografted in Bar b/c nude mouse assessed as reduction in tumor weight at 50 mg/kg, ip adminstered twice weekly for 3 weeks and measured every 3 days for 20 days by caliper method. The class given is functional, organism-based. A general note: In xenograft studies the graft and the host belong to different species.

The nature of data set [3]: Toxicity in Bar b/c nude mouse xenografted with human U118MG cells assessed as effect on body weight at 50 mg/kg, ip adminstered twice weekly for 3 weeks and measured every 3 days for 20 days. To be noted: in vivo, 480 h. The data set is classed as organism-based.
For data set [4], the system named is Mus musculus. Description: Increase in E-cadherin protein expression in tumor of Bar b/c nude mouse xenografted with human U118MG cells at 50 mg/kg, ip adminstered every 3 days for 3 weeks and measured after 20 days by Western blot analysis. The data set is classed as functional, organism-based.
Data set [5] deals with Mus musculus. Description: Increase in Bax protein expression in tumor of Bar b/c nude mouse xenografted with human U118MG cells at 50 mg/kg, ip adminstered every 3 days for 3 weeks and measured after 20 days by Western blot analysis. The data set is classed as functional, organism-based.
Data set [6] relates to Mus musculus. The experiment in a line: Reduction in STAT3 protein expression in tumor of Bar b/c nude mouse xenografted with human U118MG cells at 50 mg/kg, ip adminstered every 3 days for 3 weeks and measured after 20 days by Western blot analysis. The data set is classed as functional, organism-based.
The subject of data set [7] is Mus musculus. Description: Reduction in vimentin protein expression in tumor of Bar b/c nude mouse xenografted with human U118MG cells at 50 mg/kg, ip adminstered every 3 days for 3 weeks and measured after 20 days by Western blot analysis. The data set is classed as functional, organism-based.
The subject of data set [8] is Mus musculus. Description: Reduction in Bcl2 protein expression in tumor of Bar b/c nude mouse xenografted with human U118MG cells at 50 mg/kg, ip adminstered every 3 days for 3 weeks and measured after 20 days by Western blot analysis. The data set is classed as functional, organism-based.
Data set [9] relates to Mus musculus. Description: Increase in E-cadherin gene expression in tumor of Bar b/c nude mouse xenografted with human U118MG cells at 50 mg/kg, ip adminstered every 3 days for 3 weeks. The data set is classed as functional, organism-based.
In data set [10] the test system is Mus musculus. Description: Reduction in STAT3 gene expression in tumor of Bar b/c nude mouse xenografted with human U118MG cells at 50 mg/kg, ip adminstered every 3 days for 3 weeks. The data set is classed as functional, organism-based.
Data set [11] relates to Mus musculus. Description: Reduction in Bcl2 gene expression in tumor of Bar b/c nude mouse xenografted with human U118MG cells at 50 mg/kg, ip adminstered every 3 days for 3 weeks. The data set is classed as functional, organism-based.
The subject of data set [12] is U-118-MG. The experiment in a line: Antitumor activity against human U118MG cells xenografted in siPKM2-treated Bar b/c nude mouse assessed as tumor growth at 50 mg/kg, ip adminstered twice weekly for 3 weeks measured every 3 days for 20 days by caliper method. The data set is classed as functional, organism-based.
Data set [13] concerns Mus musculus. The experiment in a line: Increase in E-cadherin protein expression in tumor of siPKM2-treated Bar b/c nude mouse xenografted with human U118MG cells at 50 mg/kg, ip adminstered twice weekly for 3 weeks and measured after 20 days by immunohistochemical analysis. The class given is functional, organism-based.
The subject of data set [14] is Mus musculus. Description: Increase in bax protein expression in tumor of siPKM2-treated Bar b/c nude mouse xenografted with human U118MG cells at 50 mg/kg, ip adminstered twice weekly for 3 weeks and measured after 20 days by immunohistochemical analysis. The class given is functional, organism-based.
For data set [15], the system named is Mus musculus. The experiment in a line: Reduction in vimentin protein expression in tumor of siPKM2-treated Bar b/c nude mouse xenografted with human U118MG cells at 50 mg/kg, ip adminstered twice weekly for 3 weeks and measured after 20 days by immunohistochemical analysis. The class given is functional, organism-based.
In data set [16] the test system is Mus musculus. Description: Reduction in phosphorylated STAT3 expression in tumor of siPKM2-treated Bar b/c nude mouse xenografted with human U118MG cells at 50 mg/kg, ip adminstered twice weekly for 3 weeks and measured after 20 days by immunohistochemical analysis. The data set is classed as functional, organism-based.
In data set [17] the test system is Mus musculus. The experiment in a line: Reduction in Bcl2 protein expression in tumor of siPKM2-treated Bar b/c nude mouse xenografted with human U118MG cells at 50 mg/kg, ip adminstered twice weekly for 3 weeks and measured after 20 days by immunohistochemical analysis. The data set is classed as functional, organism-based.
Data set [18] relates to Mus musculus. Description: Increase in E-cadherin protein expression in tumor of Bar b/c nude mouse xenografted with human U118MG cells at 50 mg/kg, ip adminstered twice weekly for 3 weeks and measured after 20 days by immunohistochemical analysis. The class given is functional, organism-based.
Data set [19] deals with Mus musculus. Description: Increase in bax protein expression in tumor of Bar b/c nude mouse xenografted with human U118MG cells at 50 mg/kg, ip adminstered twice weekly for 3 weeks and measured after 20 days by immunohistochemical analysis. The class given is functional, organism-based.
In data set [20] the test system is Mus musculus. Description: Reduction in vimentin protein expression in tumor of Bar b/c nude mouse xenografted with human U118MG cells at 50 mg/kg, ip adminstered twice weekly for 3 weeks and measured after 20 days by immunohistochemical analysis. The data set is classed as functional, organism-based.
Data set [21] relates to Mus musculus. The experiment in a line: Reduction in phosphorylated STAT3 expression in tumor of Bar b/c nude mouse xenografted with human U118MG cells at 50 mg/kg, ip adminstered twice weekly for 3 weeks and measured after 20 days by immunohistochemical analysis. The class given is functional, organism-based.
In data set [22] the test system is Mus musculus. The experiment in a line: Reduction in Bcl2 protein expression in tumor of Bar b/c nude mouse xenografted with human U118MG cells at 50 mg/kg, ip adminstered twice weekly for 3 weeks and measured after 20 days by immunohistochemical analysis. The data set is classed as functional, organism-based.

The source made the active and inactive calls. The calls are words filed in the database; no cut-off is given here.

Regarding `CN(C)C[C@@H]1C(=O)O[C@H]2[C@H]1CC/C(C(=O)OCCOCCOC(=O)/C1=C/CC[C@@]3(C)O[C@H]3[C@H]3OC(=O)[C@@H](CN(C)C)[C@@H]3CC1)=C\CC[C@@]1(C)O[C@@H]21.O=C(O)/C=C/C(=O)O.O=C(O)/C=C/C(=O)O`, the outcome in the data set with U-118-MG [1], with U-118-MG [2], with Mus musculus [4], in the data set with Mus musculus [5], in the data set on Mus musculus [9] and in the data set on Mus musculus [18] was Active. For the same molecule, the outcome with Mus musculus [19] was Active. In addition, the Activity result in data set [3] is “Non-Toxic”. Besides, the inhibition result in the data set on Mus musculus [6], with Mus musculus [7], with Mus musculus [8], with Mus musculus [10], with Mus musculus [11] and in the data set on Mus musculus [20] was “Active” in each case. Further, the inhibition result in the data set with Mus musculus [21] and in the data set with Mus musculus [22] was “Active” in each case. Further, the result in the data set with U-118-MG [12], in the data set on Mus musculus [13] and with Mus musculus [14] was inactive. Moreover, the inhibition result with Mus musculus [15], in the data set on Mus musculus [16] and in the data set on Mus musculus [17] was “inactive” throughout.
